A short description of series [1]: Metabolic stability, incubation with human liver S-9 fractions. It is filed as in vitro ADME. The conditions noted are these: for Liver S9 Stability Factor: % parent remaining after 30 min at 37 C with human liver S9, divided by average % ranolazine remaining (57%). The procedure: Metabolic Stability: As a measure of metabolic stability the compounds of this invention were incubated with human liver S-9 microsomal fractions. After, 30 minutes at 37 C, the amount of parent drug remaining was determined using LC-mass spec. The response factors for each compound was determined by establishing a standard curve and using an internal standard during the analysis of the samples. An average of five experiments for percentage of ranolazine remaining at the 30 minute time point is 57%. The compounds of this invention were assayed as described in the protocol below and the percentage of parent remaining was divided by the average % of ranolazine remaining (57%) affording a metabolic stability factor. A compound with a stability number greater than 1.2 has a better stability than ranolazine in the liver S-9 assay. A compound with a stability number between 1.2 and 0.8 has an equivalent stability in the liver S-9 assay.
The purpose of this experiment is to compare the percentages remaining for compounds of this invention with the percentage remaining for ranolazine after 30 minutes of incubation with human liver S9 fractions.
The following reagents were used; Potassium phosphate, 0.5M pH 7.4 (incubation buffer), kept at room temperature; 0.05M MgCl^2 kept at 4° C.; β-Nicotinamide adenine dinucleotide phosphate, tetrasodium salt, reduced form (NADPH), 0.02M solution in water (˜16.6 mg/mL) from Sigma Lot #79H7044 prepared on day of use. 1 mM of ranolazine or Compounds 43, 45, 47, 52, 70, 74, 76, 78, and 80 in ACN further diluted to obtain 100 μM in 10% ACN; Human S9 stock: 20 mg/mL from Gentest.
Incubation mixtures were prepared as follows:
Combine all components with incubation buffer and re-pipette 200 μL/tube+25 μL of the compound being tested along with 25 μL of S-9.
After 5 min of pre-incubation at 37° C., at 0 and 30 min after starting the reaction, a 50 μl aliquot of the incubation mixture was removed and added to 100 μL of 9:1 acetonitrile:methanol containing the internal standard.
The mixture was centrifuged and a 100 μL aliquot of the supernatant was diluted in 1 mL of solvent C (0.1% Formic Acid in water). Then samples were analyzed for change between the ratio of compound to internal standard at time zero and 30 minutes by LC/MS (injected 10 μL).
Samples were analyzed for the starting compounds and potential metabolite/s by LC/MS using an internal standard and an ODS-C18 column with a flow rate of 0.25 ml/min.

The test system of series [2] is mitochondrial fatty acid oxidation using palmitoyl CoA as substrate. As to the kind of experiment: Palmitoyl CoA oxidation in isolated rat heart mitochondria. It is filed as biochemical. The conditions noted are these: for Inhibition of mitochondrial fatty acid oxidation using palmitoyl CoA as substrate - % of Control, 100 μm (%): 100 μm compound, 15 min at 30° C. The procedure: Rat heart mitochondria were isolated by the method of Nedergard and Cannon (Methods in Enzymol. 55, 3, 1979). Palmitoyl CoA oxidation—The Palmityl CoA oxidation was carried out in a total volume of 100 micro liters containing the following agents: 110 mM KCl, 33 mM Tris buffer at pH 8, 2 mM KPi, 2 mM MgCl2, 0.1 mM EDTA, 14.7 microM defatted BSA, 0.5 mM malic acid, 13 mM carnitine, 1 mM ADP, 52 micrograms of mitochondrial protein, and 16 microM 1-C14 palmitoyl CoA (Sp. Activity 60 mCi/mmole; 20 microCi/ml, using 5 microliters per assay). The compounds of this invention were added in a DMSO solution at the following concentrations: 100 microM, and 50 microM. In each assay, a DMSO control was used. After 15 min at 30° C., the enzymatic reaction was centrifuged (20,000 g for 1 min), and 70 microliters of the supernatant was added to an activated reverse phase silicic acid column (approximately 0.5 ml of silicic acid). The column was eluted with 2 ml of water, and 0.5 ml of the eluent was used for scintillation counting to determine the amount of C^14 trapped as C^14 bicarbonate ion.

[3] abbreviates: Table 1, read-out: IC50 (μm), inhibition of mitochondrial fatty acid oxidation using palmitoyl CoA as substrate.
[4] abbreviates: Table IA, read-out: Effect on Palmitoyl CoA Oxidation (IC50).

Molecules are shown by their SMILES. Read-outs that look alike come from different tables or passages of the source.

Broadly, the IC50 is the concentration needed to halve the response being measured.

`COc1ccccc1OCC(O)CN1CCN(CC(=O)Nc2c(C)cccc2C)CC1` (racemic) [ranolazine, (±)-N-(2,6-dimethylphenyl)-4-[2-hydroxy-3-(2-methoxyphenoxy)-propyl]-1-piperazineacetamide, reference compound]: in series [1] (human liver S-9, 30 minutes at 37 C, average of five experiments), the “percentage of parent drug remaining at the 30 minute time point” value turned out to be 57%.

`Cc1cccc(C)c1NC(=O)CN1CCN(CC(O)COc2nc3ccccc3s2)CC1` (centres unmarked) [Compound 43, 2-{4-[3-(benzothiazol-2-yloxy)-2-hydroxy-propyl]-piperazin-1-yl}-N-(2,6-dimethylphenyl)acetamide]: in series [2], the “Inhibition of mitochondrial fatty acid oxidation using palmitoyl CoA as substrate - % of Control, 100 μm (%)” value (from here on “Inhibition … (%)”) stood at 21%. Further, the “Liver S9 Stability Factor” value in series [1] is on record as 0.6.

Turning to `Cc1nc2cc(OCC(O)CN3CCN(CC(=O)Nc4c(C)cccc4C)CC3)ccc2s1` (centres unmarked) [Compound 45, N-(2,6-dimethylphenyl)-2-{4-[2-hydroxy-3-(2-methyl-benzothiazol-5-yloxy)-propyl]-piperazin-1-yl}acetamide], in series [2], the “Inhibition … (%)” value was 87%. Further, the half-maximal inhibitory concentration (IC50) in series [2] (setting [3]) is approximately 20 µM; in series [2] (setting [4]), 15 µM. Besides, the “Liver S9 Stability Factor” value in series [1] amounted to 0.8.

As for `Cc1cccc(C)c1NC(=O)CN1CCN(CC(O)COc2cccc3[nH]c(C(N)=O)cc23)CC1` (centres unmarked) [Compound 46, 4-(3-{4-[(2,6-dimethylphenylcarbamoyl)-methyl]-piperazin-1-yl}-2-hydroxypropoxy)-1H-indole-2-carboxylic acid amide], the “Inhibition … (%)” value in series [2] worked out at 61%. The IC50 in series [2] (setting [3]) was approximately 125 µM. Also, in series [1], the “Liver S9 Stability Factor” value turned out to be 1.1.

As to `Cc1cccc(C)c1NC(=O)CN1CCN(CC(O)COc2ccc3ncsc3c2)CC1` (centres unmarked) [Compound 47, 2-{4-[3-(benzothiazol-6-yloxy)2-hydroxy-propyl]-piperazin-1-yl}-N-(2,6-dimethylphenyl)-acetamide], the “Inhibition … (%)” value in series [2] came to 70%. Also, the half-maximal inhibitory concentration (IC50) in series [2] (setting [3]) was approximately 125 µM. Besides, the “Liver S9 Stability Factor” value in series [1] was found to be 1.5.

As for `Cc1nc2cc(OCC(O)CN3C(C)CN(CC(=O)Nc4c(C)cccc4C)CC3C)ccc2s1` (stereo not drawn) [Compound 52, N-(2,6-dimethylphenyl)-2-{4-[2-hydroxy-3-(2-methyl-benzothiazol-5-yloxy)-propyl]-3,5-cis dimethyl-piperazine-1-yl}acetamide], in series [2], the “Inhibition … (%)” value was found to be 95%. Besides, the results for the IC50 in series [2] (setting [3]) and in series [2] (setting [4]) were approximately 1 µM and 0.7 µM, respectively. Moreover, the “Liver S9 Stability Factor” value in series [1] was 0.5.

As to `Cc1cccc(C)c1NC(=O)CN1CCN(CC(O)COc2cnc3ccccc3n2)CC1` (centres unmarked) [Compound 70, N-(2,6-dimethylphenyl)-2-{4-[2-hydroxy-3-(quinoxalin-2-yloxy)-propyl]-piperazin-1-yl}acetamide], in series [1], the “Liver S9 Stability Factor” value is 0.1.

Consider `Cc1cccc(C)c1NC(=O)CN1CCN(CC(O)COc2ccnc3ccccc23)CC1` (centres unmarked) [Compound 74, N-(2,6-dimethylphenyl)-2-{4-[2-hydroxy-3-(quinolin-4-yloxy)-propyl]-piperazin-1-yl}acetamide], for which, in series [2], the “Inhibition … (%)” value is recorded as 12%. Further, the “Liver S9 Stability Factor” value in series [1] turned out to be 1.0.

Turning to `Cc1cccc(C)c1NC(=O)CN1CCN(CC(O)COc2cccc3cnccc23)CC1` (centres unmarked) [Compound 76, N-(2,6-dimethylphenyl)-2-{4-[2-hydroxy-3-(isoquinolin-5-yloxy)-propyl]-piperazin-1-yl}acetamide], the “Inhibition … (%)” value in series [2] was found to be 26%. Also, the “Liver S9 Stability Factor” value in series [1] was 0.8.

For `Cc1cccc(C)c1NC(=O)CN1CCN(CC(O)COc2ccc3ncccc3c2)CC1` (centres unmarked) [Compound 78, N-(2,6-dimethylphenyl)-2-{4-[2-hydroxy-3-(quinolin-6-yloxy)-propyl]-piperazin-1-yl}acetamide], in series [2], the “Inhibition … (%)” value was found to be 42%. Also, the “Liver S9 Stability Factor” value in series [1] is 0.6.

Consider `Cc1ccc2ccc(OCC(O)CN3CCN(CC(=O)Nc4c(C)cccc4C)CC3)cc2n1` (centres unmarked) [Compound 80, N-(2,6-dimethylphenyl)-2-{4-[2-hydroxy-3-(2-methyl-quinolin-7-yloxy)-propyl]-piperazin-1-yl}acetamide], for which the “Inhibition … (%)” value in series [2] was determined as 22%. Further, the “Liver S9 Stability Factor” value in series [1] worked out at 0.5.
